Source: PubChem BioAssay AID1320 (NMMLSC, 2008)
The source made the active and inactive calls. No rule for the calls is given here.

Molecular target: Bcl-2-related protein A1 (Homo sapiens) (UniProt Q16548)
Assay: Bfl-1/Bim complex disruptors – biochemical, multiplexed, bead-based flow cytometry, dose response (AID 1320); as to percent span (inhibition): test concentration not given here
Details: Bim peptide-Bfl-1 binding, fluorescence; for percent span (inhibition): stronger effect = higher value

Chain of Bcl-2-related protein A1 (Homo sapiens) (Q16548 whole entry, looked up): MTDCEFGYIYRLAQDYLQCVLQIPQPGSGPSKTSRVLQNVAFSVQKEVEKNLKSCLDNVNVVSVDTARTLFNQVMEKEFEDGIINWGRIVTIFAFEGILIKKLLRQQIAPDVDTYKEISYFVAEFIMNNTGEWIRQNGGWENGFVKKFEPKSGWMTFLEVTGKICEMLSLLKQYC

| Structure (SMILES) | percent span (inhibition) | EC50 [µM] |
| --- | --- | --- |
| CC(C(=O)Nc1ccc([N+](=O)[O-])cc1)N1CCN(C/C=C/c2ccccc2)CC1 (centres undefined) | inactive | – |
| Cc1[nH]n(C(N)=S)c(=O)c1N=Nc1ccc(S(=O)(=O)N2CCCCCC2)cc1 | inactive | – |
| Cc1sc2nc(C(C)C)nc(SCC(=O)N3c4ccccc4CC3C)c2c1C (centres undefined) | inactive | – |
| O=C(CC1NCCNC1=O)Nc1cccc([N+](=O)[O-])c1 (centres undefined) | inactive | – |
| CN(CCCOc1ccccc1Br)Cc1ccccc1 | inactive | – |
| c1ccc(-c2nnc(OCCN3CCOCC3)c3ccccc23)cc1 | inactive | – |
| CCC(CC)C(=O)Nc1cccc(SC)c1 | inactive | – |
| CCNC(=O)N1c2ccc(OCC)cc2C(C)=CC1(C)C | inactive | – |
| CNC(=O)/C(C#N)=C/c1c(N(Cc2ccccc2)Cc2ccccc2)nc2c(C)cccn2c1=O | inactive | – |
| COCc1cc(CN2CCCC(CNC(=O)c3ccc(F)cc3)C2)ccc1OC (centres undefined) | inactive | – |
| Cc1ccnc(Nc2nc(-c3c(C)nc4sccn34)cs2)c1 | inactive | – |
| CCOC(=O)c1nc(Nc2ccc(Nc3ccccc3)cc2)c2ccccc2n1 | inactive | – |
| CCOC(=O)C1=C(CP(=O)(c2ccccc2)c2ccccc2)NC(=O)NC1c1ccc(OC)cc1 (centres undefined) | inactive | – |
| N/C(=N\N=C/c1ccc(Br)cc1)N/N=C\c1ccc(Br)cc1 | inactive | – |
| CN(C)C(=O)N1CCC(C(=O)NC2CCCCCCC2)CC1 | inactive | – |
| Cc1c(NC2=C(Cl)C(=O)N(c3ccccc3Cl)C2=O)c(=O)n(-c2ccccc2)n1C | – | 6.04 |
| Cc1nc2ccccc2n1CSc1ccccc1 | inactive | – |
| CC1(C(=O)N(CC(=O)NC2CCCC2)Cc2ccco2)CC(=O)N=C2C=CC=CN21 (centres undefined) | inactive | – |
| CC1Cc2ccccc2N1C(=O)c1ccc(N2CCCC2)c([N+](=O)[O-])c1 (centres undefined) | inactive | – |
| CN(CCc1ccccn1)C(=O)CCC1CCCN(C(=O)NC2CCCCC2)C1 (centres undefined) | inactive | – |
| CC1(C)CC(=O)C(C=NCCN2CCN(CCc3ccccc3)CC2)=C(O)C1 | inactive | – |
| N/C(=N\OC(=O)CCC1CCCC1)c1ccncc1 | inactive | – |
| CC(C)COC(=O)/C(C#N)=C/c1cn(Cc2ccccc2)c2ccccc12 | inactive | – |
| O=C(Nc1ccccn1)c1cc2ccccc2o1 | inactive | – |
| CN=c1scc(C)n1/N=C/c1ccc(O)c(O)c1O | inactive | – |

| Structure (SMILES) | percent span (inhibition) | EC50 [µM] |
| --- | --- | --- |
| COc1cc2c(cc1OC)C(c1ccccc1F)OC(=O)C2 (centres undefined) | inactive | – |
| Cc1ccc(C)c(N2CCN(C(=S)Nc3ccc4nc(N5CCN(C)CC5)cc(C)c4c3)CC2)c1 | inactive | – |
| COCCNC(=S)Nc1cc(OC)c(OC)cc1C#N | inactive | – |
| CC(C)=C1C(=O)NN(c2ccc(C)c(Cl)c2)C1=O | inactive | – |
| O=C(CSc1nnc(-c2cccs2)n1Cc1ccco1)c1ccc2c(c1)OCO2 | inactive | – |
| COc1ccc(NC(=O)c2cccs2)cc1 | inactive | – |
| CCC(CC)C(=O)Nc1cccc(S(=O)(=O)c2cccc(NC(=O)C(CC)CC)c2)c1 | inactive | – |
| Cn1cc(CN2C[C@]3(C)C[C@H]2CC(C)(C)C3)c(-c2ccc3c(c2)OCCO3)n1 | inactive | – |
| CCCc1nnc2n1N=C(c1ccc(-c3cc(Cl)ccc3Cl)o1)CS2 | inactive | – |
| O=C(O)c1cccc(NC2=C(Cl)C(=O)c3ccccc3C2=O)c1 | inactive | – |
| Cc1csc(Nc2ccccc2C(F)(F)F)n1 | inactive | – |
| CC(=O)N1CCN(C(=O)c2ccc(-n3c(C)ccc3C)cc2)CC1 | inactive | – |
| C/C(=N\NC(=O)Cn1nc(C)c([N+](=O)[O-])c1C)c1ccc(O)cc1 | inactive | – |
| COc1ccc(OC)c(-n2c(=O)c3ccccc3c3ccccc3c2=O)c1 | inactive | – |
| Cc1ccc(-c2cc(C(=O)OCC(=O)N(C)C3CCS(=O)(=O)C3)c3ccccc3n2)o1 (centres undefined) | inactive | – |
| CC1(C)SC(=S)N(NC(=O)Nc2ccccc2)C1N(O)C(=O)Nc1cccc2ccccc12 (centres undefined) | inactive | – |
| Cn1c(CNc2nc(-c3ccccc3)cs2)nnc1SCC(=O)N1CCc2ccccc21 | inactive | – |
| COc1ccc(-c2nnc(SCC(=O)Nc3nc4ccccc4s3)n2C)cc1 | inactive | – |
| COc1cc(C=Nc2cccc(C)c2)c(O)c([N+](=O)[O-])c1 | inactive | – |
| C=CCn1c(C)cc(-c2csc(NC)n2)c1C | inactive | – |
| CCOc1cc(CNc2ccc(N(C)C)cc2)cc(Br)c1OCC(=O)NC(C)(C)C | inactive | – |
| COc1ccc(C)cc1-n1c(=O)c2ccccc2c2ccccc2c1=O | inactive | – |
| Cc1cc(NC(=O)CCCC(=O)NCc2ccccc2)no1 | inactive | – |
| O=C(COC(=O)CCCN=C1NS(=O)(=O)c2ccccc21)NC(=O)NC1CCCC1 | inactive | – |
| C=CCn1c(SCC(=O)Nc2ccc3c(c2)OCO3)nnc1-c1cc(Br)ccc1O | inactive | – |

| Structure (SMILES) | percent span (inhibition) | EC50 [µM] |
| --- | --- | --- |
| CS(=O)(=O)NN1C(=O)c2ccccc2NC1c1cccs1 (centres undefined) | inactive | – |
| COc1ccc(COC(=O)NNC(=O)c2ccccc2Cl)cc1 | inactive | – |
| CN(/N=C/c1cccnc1)C1=NS(=O)(=O)c2ccccc21 | inactive | – |
| O=C(Nc1ccc(Cl)cn1)Nc1ccccc1F | inactive | – |
| CCN1CCN(CC(=O)c2c[nH]c3ccc(C)cc23)CC1 | inactive | – |
| Cc1cc(C)cc(-n2c(C)nc3cc(C(=O)O)ccc32)c1 | inactive | – |
| O=C(CSc1nnc(-c2ccccc2)c(-c2ccccc2)n1)N1CCc2ccccc21 | inactive | – |
| COc1ccc2nc(C)cc(SCC(=O)N/N=C/c3ccc(O)c(O)c3)c2c1 | inactive | – |
| Cc1nnc(NCc2n[nH]c(=O)c3ccccc23)c2ccccc12 | inactive | – |
| O=C(CSc1nnc(-c2ccco2)n1Cc1ccccc1)c1ccccc1 | inactive | – |
| C=CCN1C(=O)/C(=C/c2ccsc2)SC1=S | inactive | – |
| O=C(NCCc1ccccc1)c1ccc2nc(-c3ccco3)c(-c3ccco3)nc2c1 | inactive | – |
| COc1cc(/C=N/NC(=O)c2ccc([N+](=O)[O-])cc2Cl)cc(Br)c1O | inactive | – |
| Clc1nc2ccccc2cc1/C=N/Nc1nc2ccccc2[nH]1 | inactive | – |
| Cc1ccc(-c2cc(C(=O)Nc3ccccc3C)c3ccccc3n2)o1 | inactive | – |
| COc1cccc(-n2nnnc2SCC(=O)Nc2cccc(NC(C)=O)c2)c1 | inactive | – |
| Cc1cccc(NC(=S)N2CCn3cccc3C2c2cccnc2)c1 (centres undefined) | inactive | – |
| Cc1ccc(/C=C2\CCCC3=C2NC(=S)NC3c2ccc(C)cc2)cc1 (centres undefined) | inactive | – |
| O=C(CSc1nnc(Cc2ccccc2)o1)NCc1ccco1 | inactive | – |
| O=C(NCC1CCCO1)c1ccc2c(=O)n(-c3ccc(F)cc3)c(=S)[nH]c2c1 (centres undefined) | inactive | – |
| CCOc1ccccc1-n1c(=O)c2ccccc2c2ccccc2c1=O | inactive | – |
| COc1cc(/C=C2\S/C(=N/S(=O)(=O)c3ccccc3)NC2=O)c([N+](=O)[O-])cc1OC | inactive | – |
| CCOc1cc(/C=N/NC(=O)c2cccs2)cc([N+](=O)[O-])c1O | inactive | – |
| Cc1ccc(Nc2nc(-c3ccccc3)c(CC(=O)O)s2)cc1 | inactive | – |
| CC[n+]1c(/C=C/C=C/N(C(C)=O)c2ccccc2)sc2ccccc21 | inactive | – |

| Structure (SMILES) | percent span (inhibition) | EC50 [µM] |
| --- | --- | --- |
| CCN(CC)c1nc(N)nc(N(c2ccccc2)c2ccccc2)n1 | inactive | – |
| CNC(=O)CC1C(=O)N(Cc2ccccc2)C(=S)N1NC(=O)c1cccc(F)c1 (centres undefined) | inactive | – |
| CNC(=S)N(Cc1cccs1)Cc1cc2ccc(OC)cc2[nH]c1=O | inactive | – |
| CCOc1cc(S(=O)(=O)N2CCCCC2)ccc1F | inactive | – |
| COc1ccccc1Oc1ccc2c(c1)C(=O)N(c1ccccc1)C2=O | inactive | – |
| N/C(Cc1ccc(Cl)c(Cl)c1)=N\OC(=O)c1cccs1 | inactive | – |
| Cc1ccc(C(=O)N(CCCN(C)C)c2nc3ccc(Cl)cc3s2)cc1C | inactive | – |
| S=C(NCCc1ccccc1)NCCc1ccccc1 | inactive | – |
| COc1cccc2c(SCC(=O)N/N=C/c3ccc(O)cc3O)cc(C)nc12 | inactive | – |
| Cc1ccc(S(=O)(=O)N(C)CC(=O)N2CCc3ccccc32)cc1 | inactive | – |
| CNC(=S)N/N=C/C1=CCC2CC1C2(C)C (centres undefined) | inactive | – |
| COc1ccc(C2C(C#N)=C(C)NC3=C2S(=O)(=O)c2ccccc23)cc1 (centres undefined) | inactive | – |
| COc1ccc(C(=O)/C=C/c2cc(OC)c(O)c(OC)c2)c(F)c1 | inactive | – |
| Cc1noc(C)c1COc1ccc(C(=O)Nc2cccnc2)cc1 | inactive | – |
| CCCCCCn1nc(C(=O)Nc2nc3c(s2)CCCC3)c2ccccc2c1=O | inactive | – |
| Nc1ccc(-c2cn3cccnc3n2)cc1 | inactive | – |
| CC(C)CCN1CCN(Cc2cccc3cccnc23)CC1CCO (centres undefined) | inactive | – |
| Cc1occc1C(=O)NNC(=S)NCc1ccccc1 | inactive | – |
| CC(C)(C)c1nc(NCCN2CCOCC2)c2nnn(Cc3ccccc3Cl)c2n1 | inactive | – |
| NC(=O)c1c(NC(=O)C2CCCO2)sc2c1CCCC2 (centres undefined) | inactive | – |
| COc1ccccc1N(C)S(=O)(=O)c1ccc(C(=O)OCC(N)=O)cc1 | inactive | – |
| CN(Cc1cccs1)C(=O)CCc1c[nH]c2ccccc12 | inactive | – |
| O=C(OCC(=O)c1ccc[nH]1)c1ccccc1 | inactive | – |
| O=C(c1cc2ccccc2oc1=O)N(c1ccccc1)C1C=CS(=O)(=O)C1 (centres undefined) | inactive | – |
